Reference: patent US20110098309A1, “METHODS OF INHIBITING THE FORMATION OF AMYLOID-BETA DIFFUSABLE LIGANDS USING ACYLHYDRAZIDE COMPOUNDS” (priority 2007, published 2011)
Values joined by “and” are separate entries in the source; they are usually repeats but may differ in a detail not shown here. Identical values can stand only once.

Key:
Aβ1-42 ADDLs = molecular target: T1, Aβ1-42 ADDLs (Homo sapiens, UniProt P05067); assay: Alternating Lever Cyclic Ratio (ALCR) rat model; format: in vivo; conditions: for Approach Errors / Perseveration Errors: injection via cannula into lateral ventricle, compared to baseline error rates
T1 construct: Synthetic Aβ1-42 powder was dissolved in 1,1,1,3,3,3-hexafluorisopropanol (HFIP)
Experimental: Preparations of Aβ1-42 ADDLs and a potential therapeutic compound under the Alternating Lever Cyclic Ratio (ALCR) rat model of AD were tested to show in vivo efficacy. This highly sensitive model has been able to detect cognitive deficits due to direct injection of cell-derived Aβ oligomers into rat brain. Using this technique, a direct injection of ADDLs made from synthetic Aβ1-42 and a putative therapeutic compound under the ALCR procedure were tested.
In this task, rats learned a complex sequence of lever-pressing requirements in order to earn food reinforcement in a two-lever experimental chamber. Subjects alternated between two levers by switching to the other lever after pressing the first lever enough to get food reward. The exact number of presses required for each food reward changed, first increasing from 2 responses per food pellet up to 56 presses per food pellet, then decreasing back to 2 responses per pellet. Intermediate values were based on the quadratic function, x^2−x. One cycle was an entire ascending and descending sequence of these lever press requirements (e.g., 2, 6, 12, 20, 30, 42, 56, 56, 42, 30, 20, 12, 6, and 2 presses per food reward). Six such full cycles were presented during each daily session.
Synthetic Aβ1-42 powder was dissolved in 1,1,1,3,3,3-hexafluorisopropanol (HFIP) to afford a solution of Aβ1-42 in HFIP of about 1 mM and allowed to incubate at ambient temperature for about 1 h. The resulting solution was chilled on ice for about 5-10 min, then aliquoted into eppendorf tubes to provide about 50 μL of solution per tube. The tubes were then placed in a chemical fume hood and allowed to stand overnight to allow the HFIP to evaporate under a slow stream of nitrogen. To remove final traces of HFIP, the tubes were subjected to two SpeedVac cycles of 15 min at room temperature and about 15 to 25 mm Hg of vacuum. The resulting films of monomerized Aβ1-42 peptide were stored over desiccant at −80° C. until used.
A tube of monomerized Aβ1-42 peptide was warmed to room temperature and the Aβ1-42 peptide was dissolved in anhydrous DMSO to afford a peptide stock DMSO solution containing about 10 μM to about 100 μM Aβ1-42 peptide in DMSO.
The concentration of the test compound is listed below in Table 3.
For the Aβ1-42 peptide only treatment, peptide stock DMSO solution was added to 37° C. neural basal to obtain the requisite Aβ1-42 peptide monomer concentration, provided that the maximum concentration of DMSO is 1% or less, and the tube was vortexed for 30 to 60 seconds, spun down briefly in a microfuge and incubated at 37° C. for 15 min prior to the start of injections.
For the Aβ1-42 peptide plus test compound treatment, peptide stock DMSO solution was added to 37° C. compound neural basal media solution to obtain the requisite Aβ1-42 peptide monomer concentration, provided that the maximum concentration of DMSO is 1% or less, and the tube was vortexed for 30 to 36 seconds, spun down briefly in a microfuge and incubated at 37° C. for 15 min prior to the start of injections.
For control injections, compound neural basal media solution was incubated at 37° C. for 15 min prior to the start of injections.
Rats: Rats are trained under ALCR until their error rates are stable. Once the rats are placed upon the final ALCR procedure, training sessions are conducted 7 days each week until the end of the study.
Surgery: All rats received a single 28 gauge cannula, which was permanently affixed to the skull, and aimed at the lateral ventricle. Half of the rats received cannula in the right ventricle and half receive cannula in the left ventricle. Rats were allowed 5 days to recover from surgery before training resumed.
Injection of Test Material and ALCR Testing: Test were conducted about every fourth day. Animals received a 10-20 μL injection of control, peptide, or peptide plus compound solutions via the implanted cannula over about 3 to 4 minutes. Animals were tested about 3 hours following injection. […]

Aβ1-42 = Aβ1-42 (Homo sapiens, UniProt P05067); assay: FRET assay of Aβ1-42 oligomer (ADDL) assembly inhibition; format: biochemical; conditions: 0.2 μM FITC-Aβ(1-42) and 0.8 μM Aβ(1-42), 37° C., six concentrations from about 10 μM to about 0.03 μM
Outline: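 Fluorescein-quenching FRET read with 0.2 μM FITC-Aβ(1-42) plus 0.8 μM Aβ(1-42) in 25 mM MOPS-Tris pH 8.0, 100 mM MgCl2, 37° C. Compound tested at six concentrations from about 10 μM down to about 0.03 μM. Fluorescence read every five minutes over about three hours; inhibition seen as absent or attenuated quenching.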

[1] = 27 nM Aβ1-42 monomer alone, rats
[2] = 1 nM ADDLs + 2 μM compound, rats tested about 3 hours after injection
[3] = 2 μM compound alone (no ADDLs), rats
[4] = ADDLs injected along with compound, rats

T1 sequence (P05067 672-713 limits assumed): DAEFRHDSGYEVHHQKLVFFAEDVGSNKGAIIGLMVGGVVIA
Sequence of Aβ1-42 (P05067 672-713 limits assumed): as above

| Molecule | Approach Errors (Aβ1-42 ADDLs; [1]) [%] | Perseveration Errors (Aβ1-42 ADDLs; [1]) [%] | Approach Errors (Aβ1-42 ADDLs; [2]) | Perseveration Errors (Aβ1-42 ADDLs; [2]) | Approach Errors (Aβ1-42 ADDLs; [3]) [%] | Perseveration Errors (Aβ1-42 ADDLs; [3]) [%] | Perseveration error (in words) (Aβ1-42 ADDLs; [4]) | Approach Errors (Aβ1-42 ADDLs; 1 nM ADDLs alone, rats) | Perseveration Errors (Aβ1-42 ADDLs; 1 nM ADDLs alone, rats) | Perseveration error (in words) (Aβ1-42 ADDLs; ADDLs compared to vehicle or Aβ1-42 monomer alone, rats) | IC50 (Aβ1-42) [µM] |
| --- | --- | --- | --- | --- | --- | --- | --- | --- | --- | --- | --- |
| Aβ1-42 Monomer: monomerized synthetic Aβ1-42 peptide [reference compound] | 105 | 117 | – | – | – | – | – | – | – | – | – |
| O=C(N/N=C/c1c(O)ccc2ccccc12)c1ccccc1O [Compound 89, 2-hydroxy-N′-((2-hydroxy-naphthalen-1-yl)methylene)benzohydrazide] | – | – | 100% and 111% | 92% and 107% | 101 | 112 | decreased significantly | – | – | – | – |
| ADDLs: amyloid beta-derived diffusable ligands: soluble, oligomeric, globular, non-fibrillar, neurotoxic Aβ1-42 peptides, made from synthetic Aβ1-42 [reference compound] | – | – | – | – | – | – | – | 102% and 142% | 133% and 127% | increased the Perseveration error | – |
| O=C(C/C(=N/NC(=O)c1ccccc1O)C(F)(F)F)c1cccs1 [Compound 2, 2-hydroxy-N′-(1,1,1-trifluoro-4-oxo-4-(thiophen-2-yl)butan-2-ylidene)benzohydrazide] | – | – | 115% | 105% | 92 | 85 | decreased significantly | – | – | – | 4.5 |
